In brackets after ≈: the same amount, converted by molar mass. Where a name gives a salt, the structure may show the parent alone. Read-outs that look alike come from different tables or passages of the source.
Columns and labels:
Assay type in all cases: cell-based
[1] = system: Fusarium solani (ATCC 58877); experiment: Fungal MIC Protocol, Fusarium solani; details: Fusarium solani, read-out: MIC Fusarium solani 58877
Method in brief: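 Broth microdilution MIC test against Fusarium solani in RPMI/MOPS medium at pH 7.0. Compounds from DMSO stock were diluted to 200 ug/mL, then serially diluted ten times and plated in duplicate at 50 μl per well. 50 ul of spore suspension at OD530 0.005 was added. Controls had compound without cells and spores without compound. Plates were mixed gently, bagged, and incubated at 35° C. for 48 hours.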

[2] = system: Mucor ramosissimus 057718 (ATCC 90286); experiment: Fungal MIC Protocol, Mucor ramosissimus (MIC-50); details: Mucor ramosissimus, read-out: MIC-50 Mucorales ramosissimus 90286
Method in brief: (§1)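 Harvested spores, adjusted by OD530 to about 2×10^4 cfu/mL in RPMI/MOPS pH 7.0, are mixed with ten duplicate serial dilutions of compound. Incubation runs 48 h at 35° C before visual scoring of the lowest concentration inhibiting growth >50%.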

Candida albicans GDH2346 = experiment: Candida Minimal Inhibitory Concentration (MIC); details: Candida albicans, read-out: MIC-50 Candida albicans GDH2346
Method in brief: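 Twofold serial dilutions from 200 μg/mL in RPMI 1640/MOPS with glucose, pH 7.0, tested in duplicate against yeast from an OD600 1.0 suspension diluted 1:1000. Incubated at 35° C; OD600 read at 24 and 48 h.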

[3] = system: Aspergillus flavus AFL1 (ATCC MYA-3631); experiment: Fungal MIC Protocol, Aspergillus flavus; details: Aspergillus flavus, read-out: MIC Aspergillus flavus 3631
Method in brief: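 The MIC against Aspergillus flavus was measured by broth microdilution in RPMI/MOPS medium at pH 7.0. Compounds were diluted to 200 ug/mL from DMSO stocks, then ten serial dilutions were tested in duplicate in round bottom 96-well plates. Spores adjusted to a final OD530 of 0.002 were added, with no-cell and no-compound control wells, and plates were incubated 48 hours at 35° C.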

[4] = system: Mucor circinelloides 1463(62) (ATCC 26759); experiment: Fungal MIC Protocol, Mucor circinelloides (MIC-50); details: Mucor circinelloides, read-out: MIC-50 Mucorales circinelloides 26579
Method in brief: as §1

[5] = system: Aspergillus fumigatus T33439 (ATCC MYA-3626); experiment: Fungal MIC Protocol, Aspergillus fumigatus; details: Aspergillus fumigatus, read-out: MIC Aspergillus fumigatus 3626
Method in brief: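 This broth microdilution MIC test used RPMI/MOPS medium at pH 7.0 with glucose. Compounds were diluted from DMSO stock to 200 ug/mL and serially diluted ten times in 96-well round bottom plates. Equal volumes of compound and Aspergillus spore suspension at OD530 0.002 were combined, with controls of compound without cells and spores without compound. Plates were bagged and incubated at 35° C. for 48 hours.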

[6] = system: Fusarium falciforme FS1 (ATCC MYA-3636); experiment: Fungal MIC Protocol, Fusarium falciforme; details: Fusarium falciforme, read-out: MIC Fusarium falciforme 3636
Method in brief: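 MIC against Fusarium falciforme was determined by broth microdilution in RPMI/MOPS medium containing glucose. Compounds started at 200 ug/mL and were serially diluted ten times, then combined with harvested spores adjusted to an OD530 of 0.005. Controls held compound without cells and spores without compound. Plates were bagged and incubated at 35° C. for 48 hours.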

[7] = ATCC58877, 100% growth inhibition at 48 hours
[8] = ATCC90286, 50% growth inhibition at 48 hours
[9] = GDH2346, 50% growth inhibition at 48 hours
[10] = 100% growth inhibition at 48 hours
[11] = ATCC26759, 50% growth inhibition at 48 hours

Structure (SMILES)	MIC [1, 7]	MIC50 [2, 8]	MIC50 (Candida albicans GDH2346; [9])	MIC [3, 10]	MIC50 [4, 11]	MIC [5, 10]	MIC [6, 10]	MIC ([1]; ATCC58877, 48 h)	MIC50 ([2]; ATCC90286, 48 h)	MIC50 (Candida albicans GDH2346; GDH2346, 48 h)	MIC ([3]; 48 h)	MIC50 ([4]; ATCC26759, 48 h)	MIC ([5]; 48 h)	MIC ([6]; 48 h)
Cc1cc(-c2nnc(-c3ccc(C4=CCN(C(=N)N)CC4)cc3)o2)ccc1C1=CCN(C(=N)N)CC1 [Example 42, 4-(4-(5-(4-(1-Carbamimidoyl-1,2,3,6-tetrahydropyridin-4-yl)-3-methylphenyl)-1,3,4-oxadiazol-2-yl)phenyl)-5,6-dihydropyridine-1(2H)-carboximidamide]	1.56 µg/mL (≈ 3.23 µM)	25 µg/mL (≈ 51.8 µM)	0.39 µg/mL (≈ 0.808 µM)	6.25 µg/mL (≈ 13 µM)	25 µg/mL (≈ 51.8 µM)	> 25 µg/mL	0.39 µg/mL (≈ 0.808 µM)							
Cc1cc(C2=CCN(C(=N)N)CC2)ccc1-c1nnc(-c2ccc(C3=CCN(C(=N)N)CC3)cc2)o1 [Example 43, 4-(4-(5-(4-(1-Carbamimidoyl-1,2,3,6-tetrahydropyridin-4-yl)-2-methylphenyl)-1,3,4-oxadiazol-2-yl)phenyl)-5,6-dihydropyridine-1(2H)-carboximidamide]	0.78 µg/mL (≈ 1.62 µM)	25 µg/mL (≈ 51.8 µM)	0.39 µg/mL (≈ 0.808 µM)	0.31 µg/mL (≈ 0.642 µM)	12.5 µg/mL (≈ 25.9 µM)	0.78 µg/mL (≈ 1.62 µM)	0.2 µg/mL (≈ 0.414 µM)							
N=C(N)N1CC=C(c2ccc(-c3nnc(-c4ccc(C5=CCN(C(=N)N)CC5)cc4F)o3)c(F)c2)CC1 [Example 48]	3.13 µg/mL (≈ 6.2 µM)	6.25 µg/mL (≈ 12.4 µM)	1.56 µg/mL (≈ 3.09 µM)	0.78 µg/mL (≈ 1.55 µM)	0.78 µg/mL (≈ 1.55 µM)	0.78 µg/mL (≈ 1.55 µM)	< 0.1 µg/mL							
N=C(N)N1CC=C(c2ccc(-c3nnc(-c4ccc(C5=CCN(C(=N)N)CC5)c(F)c4)o3)cc2F)CC1 [Example 49, 4,4′-(4,4′-(1,3,4-oxadiazole-2,5-diyl)bis(2-fluoro-4,1-phenylene)) bis(5,6-dihydropyridine-1(2H)-carboximidamide)]	3.13 µg/mL (≈ 6.2 µM)	25 µg/mL (≈ 49.5 µM)	1.56 µg/mL (≈ 3.09 µM)	0.78 µg/mL (≈ 1.55 µM)	1.56 µg/mL (≈ 3.09 µM)	3.13 µg/mL (≈ 6.2 µM)	< 0.1 µg/mL							
N=C(N)N1CC=C(c2ccc(-c3nnc(-c4ccc(C5=CCN(C(=N)N)CC5)cc4F)o3)cc2)CC1 [Example 50, 4-(4-(5-(4-(1-Carbamimidoyl-1,2,3,6-tetrahydropyridin-4-yl)-2-fluorophenyl)-1,3,4-oxadiazol-2-yl)phenyl)-5,6-dihydropyridine-1(2H)-carboximidamide]	1.56 µg/mL (≈ 3.21 µM)	25 µg/mL (≈ 51.4 µM)	0.78 µg/mL (≈ 1.6 µM)	0.39 µg/mL (≈ 0.802 µM)	50 µg/mL (≈ 103 µM)	0.78 µg/mL (≈ 1.6 µM)	< 0.1 µg/mL							
Cn1nc(-c2ccc(C3=CCN(C(=N)N)CC3)cc2)cc1-c1ccc(C2=CCN(C(=N)N)CC2)cc1 [Example 54, 4,4′-(4,4′-(1-Methyl-1H-pyrazole-3,5-diyl)bis(4,1-phenylene)) bis(5,6-dihydropyridine-1(2H)-carboximidamide)]	0.78 µg/mL (≈ 1.62 µM)	3.13 µg/mL (≈ 6.51 µM)	0.5 µg/mL (≈ 1.04 µM)	0.39 µg/mL (≈ 0.811 µM)	0.39 µg/mL (≈ 0.811 µM)	1.56 µg/mL (≈ 3.25 µM)	< 0.1 µg/mL							
N=C(N)N1CC=C(c2ccc(-c3nnc(-c4ccc(C5=CCN(C(=N)N)CC5)cc4F)n3CCO)c(F)c2)CC1 [Example 57, 4,4′-(4,4′-(4-(2-Hydroxyethyl)-4H-1,2,4-triazole-3,5-diyl)bis(3-fluoro-4,1-phenylene))bis(5,6-dihydropyridine-1(2H)-carboximidamide)]	< 0.1 µg/mL	3.13 µg/mL (≈ 5.72 µM)	0.2 µg/mL (≈ 0.365 µM)	0.2 µg/mL (≈ 0.365 µM)	0.39 µg/mL (≈ 0.712 µM)	< 0.1 µg/mL	< 0.1 µg/mL							
COCCn1c(-c2ccc(C3=CCN(C(=N)N)CC3)cc2)nnc1-c1ccc(C2=CCN(C(=N)N)CC2)cc1 [Example 67, 4-(4-{5-[4-(1-carbamimidoyl-1,2,3,6-tetrahydropyridin-4-yl)phenyl]-4-(2-methoxyethyl)-4H-1,2,4-triazol-3-yl}phenyl)-1,2,3,6-tetrahydropyridine-1-carboximidamide trifluoroacetate]								0.05 µg/mL	1.56 µg/mL	0.2 µg/mL	0.1 µg/mL	0.39 µg/mL	0.1 µg/mL	0.05 µg/mL
COCCn1c(-c2ccc(C3=CCN(C(=N)N)CC3)cc2F)nnc1-c1ccc(C2=CCN(C(=N)N)CC2)cc1F [Example 68, 4-(4-{5-[4-(1-carbamimidoyl-1,2,3,6-tetrahydropyridin-4-yl)-2-fluorophenyl]-4-(2-methoxyethyl)-4H-1,2,4-triazol-3-yl}-3-fluorophenyl)-1,2,3,6-tetrahydropyridine-1-carboximidamide trifluoroacetate]								< 0.1 µg/mL	0.78 µg/mL	0.2 µg/mL	< 0.1 µg/mL	0.39 µg/mL	0.1 µg/mL	< 0.1 µg/mL
N=C(N)N1CC=C(c2ccc(-c3nnc(-c4ccc(C5=CCN(C(=N)N)CC5)cc4)n3C3CCCC3)cc2)CC1 [Example 69, 4-(4-{5-[4-(1-carbamimidoyl-1,2,3,6-tetrahydropyridin-4-yl)phenyl]-4-cyclopentyl-4H-1,2,4-triazol-3-yl}phenyl)-1,2,3,6-tetrahydropyridine-1-carboximidamide trifluoroacetate]								< 0.1 µg/mL	0.39 µg/mL	0.39 µg/mL	0.2 µg/mL	0.39 µg/mL	0.1 µg/mL	< 0.1 µg/mL
Cl.N=C(N)N1CC=C(c2ccc(-c3nnc(-c4ccc(C5=CCN(C(=N)N)CC5)cc4)n3CCO)cc2)CC1 [Example 70, 4-(4-{5-[4-(1-carbamimidoyl-1,2,3,6-tetrahydropyridin-4-yl)phenyl]-4-(2-hydroxyethyl)-4H-1,2,4-triazol-3-yl}phenyl)-1,2,3,6-tetrahydropyridine-1-carboximidamide hydrochloride]	0.05 µg/mL	12.5 µg/mL	0.3 µg/mL	0.1 µg/mL	1.56 µg/mL	0.1 µg/mL	0.05 µg/mL							
N=C(N)N1CC=C(c2ccc(-c3nnc(-c4ccc(C5=CCN(C(=N)N)CC5)cc4F)n3CCCO)c(F)c2)CC1 [Example 73, 4-(4-{5-[4-(1-carbamimidoyl-1,2,3,6-tetrahydropyridin-4-yl)-2-fluorophenyl]-4-(3-hydroxypropyl)-4H-1,2,4-triazol-3-yl}-3-fluorophenyl)-1,2,3,6-tetrahydropyridine-1-carboximidamide hydrochloride]								0.05 µg/mL	3.13 µg/mL	0.2 µg/mL	0.2 µg/mL	1.56 µg/mL	0.1 µg/mL	0.1 µg/mL
Cn1c(-c2ccc(C3=CCN(C(=N)N)CC3)cc2)nnc1-c1ccc(C2=CCN(C(=N)N)CC2)cc1F [Example 78, 4-(4-{5-[4-(1-carbamimidoyl-1,2,3,6-tetrahydropyridin-4-yl)-2-fluorophenyl]-4-methyl-4H-1,2,4-triazol-3-yl}phenyl)-1,2,3,6-tetrahydropyridine-1-carboximidamide trifluoroacetate]								0.1 µg/mL	0.78 µg/mL	0.2 µg/mL	0.1 µg/mL	0.2 µg/mL	0.05 µg/mL	0.05 µg/mL
